Results as given in PubChem BioAssay (NCI).
Values joined by “and” are separate entries in the source; they are usually repeats but may differ in a detail not shown here. Equal entries are not always repeated.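 48-hour exposure; five concentrations; linearly interpolated endpoints. The concentration for 50% growth inhibition is given as GI50. TGI: total growth inhibition.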

System: MDA-N
Assay: NCI anticancer screen, dose series, 48 h

COC1CC(OC2OC(CO)C(O)C(O)C2O)/C(=C\C#N)C(O)C1OC (stereo not given)
TGI: > 100 µM

CC1CN(CCO)CC(C)O1 (stereo not given)
TGI: > 100 µM

O=C(Nc1ccc(Cl)cc1)NS(=O)(=O)c1ccc2c(c1)CCC2
TGI: > 100 µM

O=C1CCCC1C(=O)Nc1ccc2ccccc2c1 (stereo not given)
TGI: > 100 µM

Cc1cc(O)c2c(c1)C[C@@H](O)C1=C2C(=O)c2c(O)ccc(OC3CC(O)C(OC4CC(OC5CCC(OC6CC(O)C(OC7CC(OC8CCC(O)C(C)O8)C(O)C(C)O7)C(C)O6)C(C)O5)C(O)C(C)O4)C(C)O3)c2C1=O (stereo not given in full)
GI50: 0.207 µM and 0.24 µM
TGI: 0.211 µM and 0.387 µM and 0.562 µM

Nc1nc2nc3c(nc2c(=O)[nH]1)CN(c1ccc(C(=O)O)cc1)C3=O
TGI: > 100 µM

O=P(O)(O)OC1C(OP(=O)(O)O)C(OP(=O)(O)O)C(OP(=O)(O)O)C(OP(=O)(O)O)C1OP(=O)(O)O (stereo not given)
GI50: > 2000 µM
TGI: > 2000 µM

CCc1nc(N)nc(N)c1-c1ccc(Cl)cc1
TGI: > 100 µM

COc1c(O)c2ccccc2c2cc(O)ccc12
TGI: 2.57 µM

NC(=O)C/C=C/CC(N)=O
TGI: > 100 µM

O=c1c(Cl)nsnc1Cl
TGI: 36.9 µM

CCOP1(=O)OCC2OC(n3cnc4c(N)ncnc43)C(O)C2O1 (stereo not given)
TGI: > 100 µM

O=C(Nc1nc2ncn(CCOC(=O)c3ccccc3)c2c(=O)[nH]1)c1ccccc1
TGI: 7.89 µM
